pIC50: −log10 of the molar value.

T1 sequence (P08581 956-1390 limits assumed): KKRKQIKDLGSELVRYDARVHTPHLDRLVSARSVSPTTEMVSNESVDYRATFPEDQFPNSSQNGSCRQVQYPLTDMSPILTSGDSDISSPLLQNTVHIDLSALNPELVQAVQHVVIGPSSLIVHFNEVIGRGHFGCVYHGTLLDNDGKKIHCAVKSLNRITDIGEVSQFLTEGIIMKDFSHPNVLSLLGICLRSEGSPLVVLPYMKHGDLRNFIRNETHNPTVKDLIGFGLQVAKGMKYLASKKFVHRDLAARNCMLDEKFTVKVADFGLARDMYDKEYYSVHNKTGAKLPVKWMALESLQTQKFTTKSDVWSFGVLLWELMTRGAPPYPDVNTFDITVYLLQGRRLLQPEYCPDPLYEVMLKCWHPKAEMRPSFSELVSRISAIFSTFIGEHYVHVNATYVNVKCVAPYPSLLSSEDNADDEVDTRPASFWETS

This assay concerns the target T1, His6-HGFR (HGFR cytoplasmic domain) (Homo sapiens, UniProt P08581).
T1 construct: made in house; host or cells: Sf9 insect cells (Spodoptera frugiperda), baculovirus, pFastBac-HT vector
Kind of assay: Inhibitory activity against HGFR tyrosine kinase activity (HTRF). It is filed as biochemical. Particulars: biotin-poly(GT), ATP, 30° C. 10 min. The method in brief: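 Sf9-expressed, Ni-NTA-purified N-terminal His6-tagged HGFR cytoplasmic domain (from Lys974), 30 ng, phosphorylates 250 ng biotin-poly(GT) in Hepes pH 7.4 with MgCl2, MnCl2 and Na3VO4. Reaction started with 4 μM ATP stock, run 10 min at 30° C, stopped with EDTA. Phosphotyrosine is detected by HTRF.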
In general, pIC50 refers to the negative decadic logarithm of the IC50, by convention in mol/L. Take `O=C(Nc1cc(Oc2ccc(NC(=O)C3(C(=O)Nc4ccc(F)cc4)CC3)c(F)c2)ccn1)N1CCC(CO)CC1` [Example 83, N-(2-Fluoro-4-{[2-({[4-(hydroxymethyl)piperidin-1-yl]carbonyl}amino)pyridin-4-yl]oxy}phenyl)-N′-(4-fluorophenyl)cyclopropane-1,1-dicarboxamide]: the negative logarithm of the IC50 (pIC50) is 7.77.

Turning to `O=C(Nc1cc(Oc2cc(F)c(NC(=O)C3(C(=O)Nc4ccc(F)cc4)CC3)cc2F)ncn1)N1CC(O)C1` [Example 97, N-{2,5-Difluoro-4-[(4-{[(3-hydroxyazetidin-1-yl)carbonyl]amino}pyrimidin-6-yl)oxy]phenyl}-N′-(4-fluorophenyl)cyclopropane-1,1-dicarboxamide], the negative logarithm of the IC50 (pIC50) is 7.68.

As to `CN(C)CC1CN(C(=O)Nc2cc(Oc3cc(F)c(NC(=O)C4(C(=O)Nc5ccc(F)cc5)CC4)cc3F)ccn2)C1` [Example 93, N-[2,5-Difluoro-4-({2-[({3-[(dimethylamino)methyl]azetidin-1-yl]carbonyl)amino]pyridin-4-yl}oxy)phenyl]-N′-(4-fluorophenyl)cyclopropane-1,1-dicarboxamide], the pIC50 is 7.38.

For the compound `CN(C)CC1CN(C(=O)Nc2cc(Oc3cc(F)c(NC(=O)C4(C(=O)Nc5ccc(F)cc5)CC4)cc3F)ncn2)C1` [Example 98, N-[4-({4-[({3-[(Dimethylamino)methyl]azetidin-1-yl}carbonyl)amino]pyrimidin-6-yl}oxy)-2,5-difluorophenyl]-N′-(4-fluorophenyl)cyclopropane-1,1-dicarboxamide], the pIC50 is 7.17.

`O=C(Nc1cc(Oc2ccc(NC(=O)C3(C(=O)Nc4ccc(F)cc4)CC3)c(F)c2)ccn1)N1CC[C@@H](O)C1` [Example 87, N-(2-Fluoro-4-{[2-({[(3R)-3-hydroxypyrrolidin-1-yl]carbonyl}amino)pyridin-4-yl]oxy}phenyl)-N′-(4-fluorophenyl)cyclopropane-1,1-dicarboxamide] had a negative logarithm of the IC50 (pIC50) of 8.05.

`O=C(Nc1cc(Oc2ccc(NC(=O)C3(C(=O)Nc4ccc(F)cc4)CC3)cc2F)ccn1)N1CCC(CO)CC1` [Example 85, N-(3-Fluoro-4-{[2-({[-4-(hydroxymethyl)piperidin-1-yl]carbonyl}amino)pyridin-4-yl]oxy}phenyl)-N′-(4-fluorophenyl)cyclopropane-1,1-dicarboxamide] gave a negative logarithm of the IC50 (pIC50) of 7.82. This pIC50 is 0.23 log units lower than that of the compound before.

Regarding `O=C(Nc1cc(Oc2ccc(NC(=O)C3(C(=O)Nc4ccc(F)cc4)CC3)c(F)c2)ccn1)N1CC[C@H](O)C1` [Example 89, N-(2-Fluoro-4-{[2-({[(3S)-3-hydroxypyrrolidin-1-yl]carbonyl}amino)pyridin-4-yl]oxy}phenyl)-N′-(4-fluorophenyl)cyclopropane-1,1-dicarboxamide], the pIC50 is 7.89.

The compound `O=C(Nc1cc(Oc2ccc(NC(=O)C3(C(=O)Nc4ccc(F)cc4)CC3)cc2F)ccn1)N1CCC(O)CC1` [Example 84, N-[3-Fluoro-4-[(2-{[(4-hydroxypiperidin-1-yl)carbonyl]amino}pyridin-4-yl)oxy]phenyl}-N′-(4-fluorophenyl)cyclopropane-1,1-dicarboxamide] had a pIC50 of 8.05.

On to `O=C(Nc1cc(Oc2ccc(NC(=O)C3(C(=O)Nc4ccc(F)cc4)CC3)c(F)c2)ccn1)N1CCC(O)CC1` [Example 82, N-[2-Fluoro-4-[(2-{[(4-hydroxypiperidin-1-yl)carbonyl]amino}pyridin-4-yl)oxy]phenyl}-N′-(4-fluorophenyl)cyclopropane-1,1-dicarboxamide], for which the pIC50 was 7.80.

Consider `O=C(Nc1cc(Oc2cc(F)c(NC(=O)C3(C(=O)Nc4ccc(F)cc4)CC3)cc2F)ccn1)N1CC(CN2CCC2)C1` [Example 95, N-{4-[(2-{[3-(Azetidin-1-ylmethyl)azetidin-1-ylcarbonyl]amino}pyridin-4-yl)oxy]-2,5-difluorophenyl}-N′-(4-fluorophenyl)cyclopropane-1,1-dicarboxamide], for which the pIC50 is 7.30.

As for `CN(C)CC1CCN(C(=O)Nc2cc(Oc3ccc(NC(=O)C4(C(=O)Nc5ccc(F)cc5)CC4)cc3F)ccn2)CC1` [Example 5, N-[4-({2-[({4-[(Dimethylamino)methyl]piperidin-1-yl}carbonyl)amino]pyridin-4-yl}oxy)-3-fluorophenyl]-N′-(4-fluorophenyl)cyclopropane-1,1-dicarboxamide], the negative-log IC50 (pIC50) was 7.22.

As for `O=C(Nc1cc(Oc2cc(F)c(NC(=O)C3(C(=O)Nc4ccc(F)cc4)CC3)cc2F)ccn1)N1CCC1` [Example 90, N-[4-({2-[(Azetidin-1-ylcarbonyl)amino]pyridin-4-yl}oxy)-2,5-difluorophenyl]-N′-(4-fluorophenyl)cyclopropane-1,1-dicarboxamide], the pIC50 was 7.92.

Take `O=C(Nc1cc(Oc2ccc(NC(=O)C3(C(=O)Nc4ccc(F)cc4)CC3)cc2F)ccn1)N1CC(CO)C1` [Example 81, N-(3-Fluoro-4-{[2-({[3-(hydroxymethyl)azetidin-1-yl]carbonyl}amino)pyridin-4-yl]oxy}phenyl)-N′-(4-fluorophenyl)cyclopropane-1,1-dicarboxamide]: the pIC50 was 7.72.

The compound `O=C(Nc1cc(Oc2cc(F)c(NC(=O)C3(C(=O)Nc4ccc(F)cc4)CC3)cc2F)ccn1)N1CC(CO)C1` [Example 96, N-(2,5-Difluoro-4-{[2-({[3-(hydroxymethyl)azetidin-1-yl]carbonyl}amino)pyridin-4-yl]oxy}phenyl)-N′-(4-fluorophenyl)cyclopropane-1,1-dicarboxamide] showed a pIC50 of 7.77.

The compound `O=C(Nc1cc(Oc2ccc(NC(=O)C3(C(=O)Nc4ccc(F)cc4)CC3)cc2F)ccn1)N1CC[C@H](O)C1` [Example 88, N-(3-Fluoro-4-{[2-({[(3S)-3-hydroxypyrrolidin-1-yl]carbonyl}amino)pyridin-4-yl]oxy}phenyl)-N′-(4-fluorophenyl)cyclopropane-1,1-dicarboxamide] showed a negative logarithm of the IC50 (pIC50) of 7.80. This pIC50 and that of the compound before are within 0.2 log units of each other.

For the compound `O=C(Nc1cc(Oc2ccc(NC(=O)C3(C(=O)Nc4ccc(F)cc4)CC3)cc2F)ccn1)N1CC[C@@H](O)C1` [Example 86, N-(3-Fluoro-4-{[2-({[(3R)-3-hydroxypyrrolidin-1-yl]carbonyl}amino)pyridin-4-yl]oxy}phenyl)-N′-(4-fluorophenyl)cyclopropane-1,1-dicarboxamide], the negative-log IC50 (pIC50) is 7.92.

In turn, `CN1CCN(C2CCN(C(=O)Nc3cc(Oc4cc(F)c(NC(=O)C5(C(=O)Nc6ccc(F)cc6)CC5)cc4F)ccn3)CC2)CC1` [Example 92, N-(2,5-Difluoro-4-{[2-({[4-(4-methylpiperazin-1-yl)piperidin-1-yl]carbonyl}amino)pyridin-4-yl]oxy}phenyl)-N′-(4-fluorophenyl)cyclopropane-1,1-dicarboxamide] gave a pIC50 of 7.33. This pIC50 lies 0.59 log units lower than the previous one.

Values taken from patent US7855290B2, “Pyridine derivatives and pyrimidine derivatives (3)” (Eisai R&D Management Co., Ltd., priority 2005, dated 2010).
